≈ marks a conversion by molar mass, not a printed value.
Columns and labels:
Epidermophyton floccus [1] = assay: In vitro contact assay (Example 26); assay type: cell-based; details: 5 days at 28 C, 100% control; for MIC: Epidermophyton, 120 h, read-out: MIC (mg/L) Epidermophyton floccus
Description: (§1) Half-strength Potato Dextrose Agar (PDA) is amended with a mixture of one of the test compounds in acetone or methanol to a final concentration of 50, 10, 2, 0.4 or 0.08 mg/L. A 3-mL volume of the amended media is added to each well of the microtiter plate. […] The plates are sealed with a clear film and incubated inverted for 5 days at 28° C.

[2] = system: Trichophyton mentagrophytes; assay: In vitro contact assay (Example 26); assay type: cell-based; details: 5 days at 28 C, 100% control; for MIC: Trichophyton mentagrophytes, 120 h, read-out: MIC (mg/L) Trichophyton mentagrophytes
Description: as §1

Trichophyton rubrum [3] = assay: In vitro contact assay (Example 26); assay type: cell-based; details: 5 days at 28 C, 100% control; for MIC: Trichophyton rubrum, 120 h, read-out: MIC (mg/L) Trichophyton rubrum
Description: as §1

Epidermophyton floccus [4] = assay: In vitro volatile assay (Example 26); assay type: cell-based; details: 5 days at 28 C, 100% control; for MIC: Epidermophyton, 120 h, read-out: MIC (mg/L) Epidermophyton floccus
Description: (§2) Volatile assay: 6-well (16.5 mL volume per well) microtiter plates are used in an in vitro inhibition assay for Compounds A and 31, and compared to other registered fungicides (5-fluorocytosine, Amphotericin B, aspofungin diacetate, Fluconazole and Itraconazole). A 7.5-mL volume of half strength PDA is added to each well. After drying, a mycelial plug (5 mm diameter) is aseptically obtained from actively growing cultures of Epidermophyton floccus, Trichophyton rubrum, or Trichophyton mentagrophytes and placed at the center of the plate with the mycelial side in contact with the agar. A Whatman #1 filter disk (Cat. No. 1001-325) is placed, in duplicate, on the underside of a polyethylene PCR plate sealing film. […] The headspace around the inoculum is then sealed inside the well by the film with the adhering disk containing the fungicide and incubated inverted for 5 days at 28° C.

[5] = system: Trichophyton mentagrophytes; assay: In vitro volatile assay (Example 26); assay type: cell-based; details: 5 days at 28 C, 100% control; for MIC: Trichophyton mentagrophytes, 120 h, read-out: MIC (mg/L) Trichophyton mentagrophytes
Description: as §2

Trichophyton rubrum [6] = assay: In vitro volatile assay (Example 26); assay type: cell-based; details: 5 days at 28 C, 100% control; for MIC: Trichophyton rubrum, 120 h, read-out: MIC (mg/L) Trichophyton rubrum
Description: as §2

Penicillium digitatum [7] = assay: Green mold on orange, volatile assay (Example 25); assay type: in vivo; details: 50 mg/L, day 3 at 21 C after 5 days at 1 C
Penicillium expansum [8] = assay: Blue mold on apple and pear, contact assay (Example 25); assay type: in vivo; details: Contact (dip); rate not given; day 3 at 21 C after 5 days at 1 C
Description: (§3) A 250 mL solution of each concentration is used to dip two inoculated fruits, one minute per fruit, performed in triplicate per rate. The dipped fruits are then placed back into the clamshells and then into the SnapWare container and incubated at 1° C. for 5 days. […] Volatile application of Compound A results in excellent inhibition of browning and sporulation, whereas all other active ingredients result in no or little inhibition.

Penicillium digitatum [9] = assay: Green mold on orange, contact assay (Example 25); assay type: in vivo; details: Contact (dip); rate not given; day 3 at 21 C after 5 days at 1 C
Description: as §3

Penicillium expansum [10] = assay: Blue mold on apple and pear, volatile assay (Example 25); details: 50 mg/L, day 3 at 21 C after 5 days at 1 C
Description: Two apples, pears or oranges are placed in a clamshell, and three fresh wounds are made near the equatorial region of each fruit. Each fruit wound is then inoculated with 20 μL of 1×10^6 spores per mL of Penicillium expansum or digitatum suspension, respectively. The inoculum is allowed to dry for two hours prior to treatment application as a volatile or contact.
Volatile Assay: Clamshells are then placed at the bottom of a 2.55-L SnapWare airtight container (Model #109842). […] The solutions are pipetted into Whatman filter disks mounted to the inside lid of the container. The chambers are then incubated at 1° C. for 5 days, removed to 21° C., and evaluated on day 3 by determining the diameter (mm) of rot development (browning) or sporulation.

Alternaria alternata = assay: Volatile MIC assay (Example 9); assay type: cell-based; details: 72 h, headspace concentration, 3 days at 23 C, read-out: MIC (mg/L) ALTEAL
Description: (§4) A 3-mL volume of full-strength Potato Dextrose Agar (PDA) is added to each well. […] Plates are inoculated immediately prior to volatile fungicide treatment. A Whatman #1 filter disk (Cat. No. 1001-0155) is placed, in duplicate, on the underside of a polyethylene PCR plate sealing film. […] The acetone is permitted to evaporate for 5 minutes. The headspace around the inoculum is then sealed inside the well by the film with the adhering disk containing the fungicide by inverting the plates over the treated disks and sealing to prevent any of the chemical from flaking from the disk and falling onto the inoculated agar.

Botrytis cinerea [11] = assay: Volatile MIC assay (Example 9); assay type: cell-based; details: 72 h, headspace concentration, 3 days at 23 C, read-out: MIC (mg/L) BOTRCI
Description: as §4

Glomerella cingulata = assay: Volatile MIC assay (Example 9); assay type: cell-based; details: Colletotrichum gloeosporioides, 72 h, headspace concentration, 3 days at 23 C, read-out: MIC (mg/L) GLOMCI
Description: as §4

Monilinia fructicola = assay: Volatile MIC assay (Example 9); assay type: cell-based; details: 72 h, headspace concentration, 3 days at 23 C, read-out: MIC (mg/L) MONIFC
Description: as §4

Penicillium expansum [12] = assay: Volatile MIC assay (Example 9); assay type: cell-based; details: 72 h, headspace concentration, 3 days at 23 C, read-out: MIC (mg/L) PENIEX
Description: as §4

B. cinerea = assay: In vitro contact assay, amended agar (Example 24); assay type: cell-based; details: Botrytis cinerea, 72 h; amended agar; 100% control; 3 days at 23 C; read-out: Contact MIC (mg/L) B. cinerea
Description: (§5) Contact assay: 6-well (16.5 mL volume per well) microtiter plates are used for an in vitro inhibition assay. […] A 7.5-mL volume of the amended media is added to each well of the microtiter plate. […] The plates are sealed with a clear film and incubated for 3 days at 23° C. After incubation, plates are evaluate for percent growth relative to acetone only control.

P. expansum = assay: In vitro contact assay, amended agar (Example 24); assay type: cell-based; details: Penicillium expansum, 72 h; amended agar; 100% control; 3 days at 23 C; read-out: Contact MIC (mg/L) P. expansum
Description: as §5

Botrytis cinerea [13] = assay: In vitro volatile assay (Example 24); assay type: cell-based; details: 72 h, headspace, 100% control, 3 days at 23 C, read-out: Volatile MIC (mg/L) B. cinerea
Description: (§6) Volatile assay: 12-well (6.5 mL volume per well) microtiter plates are used. A 3-mL volume of half strength PDA is added to each well. […] A Whatman #1 filter disk (Cat. No. 1001-0155) is placed, in duplicate, on the underside of a polyethylene PCR plate sealing film. […] The acetone is permitted to evaporate for 5 minutes. The headspace around the inoculum is then sealed inside the well by the film with the adhering disk containing the fungicide. Plates are inverted, placed over the treated disks, and sealed to prevent any of the chemical from flaking from the disk and falling onto the inoculated agar. […] Contact assay: 6-well (16.5 mL volume per well) microtiter plates are used for an in vitro inhibition assay. […] A 7.5-mL volume of the amended media is added to each well of the microtiter plate. […] The plates are sealed with a clear film and incubated for 3 days at 23° C. After incubation, plates are evaluate for percent growth relative to acetone only control.

Penicillium expansum [14] = assay: In vitro volatile assay (Example 24); assay type: cell-based; details: 72 h, headspace, 100% control, 3 days at 23 C, read-out: Volatile MIC (mg/L) P. expansum
Description: as §6

Structure (SMILES)	Orange Sporulation (mm) (Penicillium digitatum [7])	Apple Browning (mm) (Penicillium expansum [8])	Apple Sporulation (mm) (Penicillium expansum [8])	Pear Browning (mm) (Penicillium expansum [8])	Pear Sporulation (mm) (Penicillium expansum [8])	Orange Sporulation (mm) (Penicillium digitatum [9])	Apple Browning (mm) (Penicillium expansum [10])	Apple Sporulation (mm) (Penicillium expansum [10])	Pear Browning (mm) (Penicillium expansum [10])	Pear Sporulation (mm) (Penicillium expansum [10])	MIC (Alternaria alternata) [mg/L]	MIC (Botrytis cinerea [11]) [mg/L]	MIC (Glomerella cingulata) [mg/L]	MIC (Monilinia fructicola) [mg/L]	MIC (Penicillium expansum [12]) [mg/L]	also measured
Nc1nc(=O)[nH]cc1F [5-Fluorocytosine, 5-fluorocytosine]	–	–	–	–	–	–	–	–	–	–	–	–	–	–	–	MIC (Epidermophyton floccus [1]): > 50 mg/L; MIC [2]: > 50 mg/L; MIC (Trichophyton rubrum [3]): > 50 mg/L; MIC (Epidermophyton floccus [4]): > 50 mg/L; MIC [5]: > 50 mg/L; MIC (Trichophyton rubrum [6]): > 50 mg/L
C[C@@H]1[C@H](O)[C@@H](C)/C=C/C=C/C=C/C=C/C=C/C=C/C=C/[C@H](O[C@@H]2O[C@H](C)[C@@H](O)[C@H](N)[C@@H]2O)C[C@@H]2O[C@](O)(C[C@@H](O)C[C@@H](O)[C@H](O)CC[C@@H](O)C[C@@H](O)CC(=O)O[C@H]1C)C[C@H](O)[C@H]2C(=O)O [Amphotericin B]	–	–	–	–	–	–	–	–	–	–	–	–	–	–	–	MIC (mg/L) Epidermophyton floccus (Epidermophyton floccus [1]): 50.0 mg/L (≈ 54.1 µM); MIC (mg/L) Trichophyton mentagrophytes [2]: >50 mg/L; MIC (mg/L) Trichophyton rubrum (Trichophyton rubrum [3]): >50 mg/L; MIC (mg/L) Epidermophyton floccus (Epidermophyton floccus [4]): >50 mg/L; MIC (mg/L) Trichophyton mentagrophytes [5]: >50 mg/L; MIC (mg/L) Trichophyton rubrum (Trichophyton rubrum [6]): >50 mg/L
O=C(Nc1ccccc1-c1ccc(Cl)cc1)c1cccnc1Cl [Boscalid]	30.3	7.0	0.8	8.6	2.3	>50	10.3	2.4	14.3	3.6	–	–	–	–	–	–
COB1OCc2ccccc21 [Compound 6]	–	–	–	–	–	–	–	–	–	–	4.5 (≈ 30.4 µM)	2.2 (≈ 14.9 µM)	17.9 (≈ 121 µM)	8.9 (≈ 60.1 µM)	17.9 (≈ 121 µM)	MIC (B. cinerea): 2 mg/L (≈ 13.5 µM); MIC (P. expansum): 2 mg/L (≈ 13.5 µM); MIC (Botrytis cinerea [13]): 4.5 mg/L (≈ 30.4 µM); MIC (Penicillium expansum [14]): 17.9 mg/L (≈ 121 µM)
COCCCOB1OCc2ccccc21 [Compound 7]	–	–	–	–	–	–	–	–	–	–	8.9 (≈ 43.2 µM)	2.2 (≈ 10.7 µM)	71.4 (≈ 347 µM)	8.9 (≈ 43.2 µM)	17.9 (≈ 86.9 µM)	–
COCCOB1OCc2ccccc21 [Compound 8]	–	–	–	–	–	–	–	–	–	–	8.9 (≈ 46.3 µM)	2.2 (≈ 11.5 µM)	71.4 (≈ 372 µM)	4.5 (≈ 23.4 µM)	35.7 (≈ 186 µM)	–
CC(C)OB1OCc2ccccc21 [Compound 9]	–	–	–	–	–	–	–	–	–	–	8.9 (≈ 50.6 µM)	2.2 (≈ 12.5 µM)	35.7 (≈ 203 µM)	8.9 (≈ 50.6 µM)	8.9 (≈ 50.6 µM)	–
CC(COB1OCc2cc(F)ccc21)OB1OCc2cc(F)ccc21 (stereo not drawn) [Compound 31]	–	–	–	–	–	–	–	–	–	–	–	–	–	–	–	MIC (B. cinerea): 0.4 mg/L (≈ 1.16 µM); MIC (P. expansum): 2 mg/L (≈ 5.82 µM); MIC (Botrytis cinerea [13]): 0.6 mg/L (≈ 1.74 µM); MIC (Penicillium expansum [14]): 8.9 mg/L (≈ 25.9 µM); MIC [2]: 2 mg/L (≈ 5.82 µM); MIC (Trichophyton rubrum [3]): 10 mg/L (≈ 29.1 µM); MIC [5]: 2 mg/L (≈ 5.82 µM); MIC (Trichophyton rubrum [6]): 2 mg/L (≈ 5.82 µM)
OB1OCc2cc(Cl)ccc21 [Compound 201]	–	–	–	–	–	–	–	–	–	–	16.1 (≈ 95.6 µM)	3.8 (≈ 22.6 µM)	9.3 (≈ 55.2 µM)	8.5 (≈ 50.5 µM)	29.5 (≈ 175 µM)	–
OC(Cn1cncn1)(Cn1cncn1)c1ccc(F)cc1F [Fluconazole]	–	–	–	–	–	–	–	–	–	–	–	–	–	–	–	MIC (Epidermophyton floccus [1]): 10 mg/L (≈ 32.7 µM); MIC [2]: > 50 mg/L; MIC (Trichophyton rubrum [3]): 50 mg/L (≈ 163 µM); MIC (Epidermophyton floccus [4]): > 50 mg/L; MIC [5]: > 50 mg/L; MIC (Trichophyton rubrum [6]): > 50 mg/L
N#Cc1c[nH]cc1-c1cccc2c1OC(F)(F)O2 [Fludioxonil]	40.8	2.9	0.0	3.3	0.0	8.3	11.2	3.1	12.8	2.8	–	–	–	–	–	–
C=CCOC(Cn1ccnc1)c1ccc(Cl)cc1Cl (stereo not drawn) [Imazalil]	41.4	6.9	0.9	7.9	1.0	0.0	11.1	3.0	14.3	3.4	–	–	–	–	–	–
Cc1cc(C)nc(Nc2ccccc2)n1 [Pyrimethanil]	22.3	8.1	2.4	8.9	5.2	0.0	11.3	2.6	14.0	6.5	–	–	–	–	–	–
c1ccc2[nH]c(-c3cscn3)nc2c1 [Thiabendazole]	>50	8.2	1.9	9.1	5.4	0.0	8.4	2.0	12.9	3.0	–	–	–	–	–	–

— patent US12329158B2, “Large-scale methods of uniformly coating packaging surfaces with a volatile antimicrobial to preserve food freshness” (AGROFRESH INC., priority 2013, dated 2025)
